Test results taken from ChEMBL document CHEMBL1201862, “PubChem BioAssay data set” (2004).
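Briefly, cells in 96-well plates were exposed to five compound concentrations for 48 h, and endpoints were estimated by linear interpolation. GI50 is the concentration that inhibits growth by half.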 Active and inactive are the calls of the source. Rule as the data show it: active = GI50 up to about 1.1 µM and inactive = higher.

How the values were obtained:
Experiment in all cases: NCI anticancer screen, dose series, 48 h
SNB-75 = test system: SNB-75
KM-20L2 = test system: KM-20L2
SNB-78 = test system: SNB-78
COLO 205 = test system: COLO 205
KM12 = test system: KM12
RXF 393 = test system: RXF 393
HOP-92 = test system: HOP-92
UACC-62 = test system: UACC-62
CCRF-CEM = test system: CCRF-CEM
SK-MEL-28 = test system: SK-MEL-28
SR = test system: SR
SNB-19 = test system: SNB-19
OVCAR-4 = test system: OVCAR-4
OVCAR-8 = test system: OVCAR-8
MOLT-4 = test system: MOLT-4
OVCAR-3 = test system: OVCAR-3
CAKI-1 = test system: CAKI-1
Malme-3M = test system: Malme-3M
M14 = test system: M14
NCI-H226 = test system: NCI-H226
NCI-H23 = test system: NCI-H23
DMS-114 = test system: DMS-114
SF-295 = test system: SF-295
LXFL 529 = test system: LXFL 529
SW-620 = test system: SW-620
K562 = test system: K562
HOP-62 = test system: HOP-62
HOP-18 = test system: HOP-18
A498 = test system: A498
HCT-15 = test system: HCT-15
SF-268 = test system: SF-268
HCC 2998 = test system: HCC 2998
UACC-257 = test system: UACC-257
U-251 = test system: U-251
RPMI-8226 = test system: RPMI-8226
SF-539 = test system: SF-539
DLD-1 = test system: DLD-1
TK-10 = test system: TK-10
IGROV-1 = test system: IGROV-1
EKVX = test system: EKVX
HT-29 = test system: HT-29
SK-MEL-5 = test system: SK-MEL-5
SN12C = test system: SN12C
LOX IMVI = test system: LOX IMVI
NCI-H460 = test system: NCI-H460
OVCAR-5 = test system: OVCAR-5
HCT-116 = test system: HCT-116
786-0 = test system: 786-0
HL-60 = test system: HL-60
ACHN = test system: ACHN
M19-MEL = test system: M19-MEL
A549 = test system: A549
XF498 = test system: XF498
NCI/ADR-RES = test system: NCI/ADR-RES
UO-31 = test system: UO-31
MCF7 = test system: MCF7
SK-MEL-2 = test system: SK-MEL-2
NCI-H522 = test system: NCI-H522
SK-OV-3 = test system: SK-OV-3
DMS-273 = test system: DMS-273

Compound: O=C(Nc1ccc(Cl)cc1C(F)(F)F)C(=O)C1CCCS1(=O)=O (configuration not stated)
- GI50 (SNB-75): > 100 µM (inactive)
- GI50 (KM-20L2): > 100 µM (inactive)
- GI50 (SNB-78): > 100 µM (inactive)
- GI50 (COLO 205): > 100 µM (inactive)
- GI50 (KM12): > 100 µM (inactive)
- GI50 (RXF 393): > 100 µM (inactive)
- GI50 (HOP-92): > 10 µM (inactive)
- GI50 (UACC-62): > 100 µM (inactive)
- GI50 (CCRF-CEM): > 100 µM (inactive)
- GI50 (SK-MEL-28): > 100 µM (inactive)
- GI50 (SR): > 100 µM (inactive)
- GI50 (SNB-19): > 100 µM (inactive)
- GI50 (OVCAR-4): > 100 µM (inactive)
- GI50 (OVCAR-8): > 100 µM (inactive)
- GI50 (MOLT-4): > 100 µM (inactive)
- GI50 (OVCAR-3): > 100 µM (inactive)
- GI50 (CAKI-1): > 100 µM (inactive)
- GI50 (Malme-3M): > 100 µM (inactive)
- GI50 (M14): > 100 µM (inactive)
- GI50 (NCI-H226): > 100 µM (inactive)
- GI50 (NCI-H23): > 100 µM (inactive)
- GI50 (DMS-114): > 100 µM (inactive)
- GI50 (SF-295): > 100 µM (inactive)
- GI50 (LXFL 529): > 100 µM (inactive)
- GI50 (SW-620): > 10 µM (inactive)
- GI50 (K562): > 100 µM (inactive)
- GI50 (HOP-62): > 100 µM (inactive)
- GI50 (HOP-18): > 100 µM (inactive)
- GI50 (A498): > 100 µM (inactive)
- GI50 (HCT-15): > 100 µM
- GI50 (SF-268): > 100 µM (inactive)
- GI50 (HCC 2998): > 100 µM (inactive)
- GI50 (UACC-257): > 100 µM (inactive)
- GI50 (U-251): > 100 µM (inactive)
- GI50 (RPMI-8226): > 100 µM (inactive)
- GI50 (SF-539): > 100 µM (inactive)
- GI50 (DLD-1): > 100 µM (inactive)
- GI50 (TK-10): > 100 µM (inactive)
- GI50 (IGROV-1): > 10 µM (inactive)
- GI50 (EKVX): > 100 µM (inactive)
- GI50 (HT-29): > 100 µM (inactive)
- GI50 (SK-MEL-5): > 100 µM (inactive)
- GI50 (SN12C): > 100 µM (inactive)
- GI50 (LOX IMVI): > 100 µM (inactive)
- GI50 (NCI-H460): > 100 µM (inactive)
- GI50 (OVCAR-5): > 100 µM (inactive)
- GI50 (HCT-116): > 100 µM (inactive)
- GI50 (786-0): > 100 µM (inactive)
- GI50 (HL-60): > 100 µM (inactive)
- GI50 (ACHN): > 100 µM (inactive)
- GI50 (M19-MEL): > 100 µM (inactive)
- GI50 (A549): > 100 µM (inactive)
- GI50 (XF498): > 100 µM (inactive)

Compound: C=C1C(=O)OC2CC(C)C3C4OC4C(O)C3(C)C(O)C12 (configuration not stated)
- GI50 (SNB-75): 41.7 µM (inactive)
- GI50 (KM-20L2): 14.1 µM (inactive)
- GI50 (NCI/ADR-RES): 20.7 µM (inactive)
- GI50 (SNB-78): 13.5 µM (inactive)
- GI50 (COLO 205): 16.3 µM (inactive)
- GI50 (KM12): 23.5 µM (inactive)
- GI50 (RXF 393): 22.1 µM (inactive)
- GI50 (HOP-92): 23.6 µM (inactive)
- GI50 (UO-31): 80.2 µM (inactive)
- GI50 (UACC-62): 12.6 µM (inactive)
- GI50 (CCRF-CEM): 12 µM (inactive)
- GI50 (MCF7): 20.7 µM (inactive)
- GI50 (SK-MEL-28): 23.6 µM (inactive)
- GI50 (SNB-19): 44.7 µM (inactive)
- GI50 (OVCAR-4): 26.5 µM (inactive)
- GI50 (OVCAR-8): 28.4 µM (inactive)
- GI50 (MOLT-4): 11.9 µM (inactive)
- GI50 (OVCAR-3): 25.9 µM (inactive)
- GI50 (CAKI-1): 22.8 µM (inactive)
- GI50 (Malme-3M): 20.9 µM (inactive)
- GI50 (NCI-H226): 30 µM (inactive)
- GI50 (NCI-H23): 14.4 µM (inactive)
- GI50 (DMS-114): 12.5 µM (inactive)
- GI50 (SF-295): 41 µM (inactive)
- GI50 (SW-620): 16.5 µM (inactive)
- GI50 (K562): 20.6 µM (inactive)
- GI50 (HOP-62): 68.9 µM (inactive)
- GI50 (HOP-18): 24.4 µM (inactive)
- GI50 (A498): 16 µM (inactive)
- GI50 (HCT-15): 22.8 µM
- GI50 (SF-268): 23.8 µM (inactive)
- GI50 (HCC 2998): 30.8 µM (inactive)
- GI50 (SK-MEL-2): 25.9 µM (inactive)
- GI50 (UACC-257): 37.8 µM (inactive)
- GI50 (U-251): 43.2 µM (inactive)
- GI50 (RPMI-8226): 13.7 µM (inactive)
- GI50 (SF-539): 17.9 µM (inactive)
- GI50 (DLD-1): 27.3 µM (inactive)
- GI50 (IGROV-1): 18.6 µM (inactive)
- GI50 (EKVX): 20 µM (inactive)
- GI50 (HT-29): 27.5 µM (inactive)
- GI50 (NCI-H522): 9.42 µM (inactive)
- GI50 (SK-MEL-5): 38.5 µM (inactive)
- GI50 (SN12C): 23 µM (inactive)
- GI50 (LOX IMVI): 14 µM (inactive)
- GI50 (NCI-H460): 19 µM (inactive)
- GI50 (OVCAR-5): 64 µM (inactive)
- GI50 (HCT-116): 15.6 µM (inactive)
- GI50 (SK-OV-3): 44.9 µM (inactive)
- GI50 (HL-60): 13.8 µM (inactive)
- GI50 (M19-MEL): 21.1 µM (inactive)
- GI50 (DMS-273): 18.4 µM (inactive)
- GI50 (A549): 53.5 µM (inactive)
- GI50 (XF498): 22.2 µM (inactive)
